Species on record: Rattus norvegicus
Assay: Open TG-GATES - Regimen: Daily Repeat
Format: toxicity, organism-based, Sprague-Dawley
Parameters: regimen Daily Repeat, gender Male, age 6 weeks
Details: in vivo, po, route gavage; for APTT / Bas / Eos / Fbg / Hb / Ht / Lym / MCH / MCHC / MCV / Mono / Neu / PT / Plat / RBC / Ret / WBC: tissue Blood; for A/G / ALP / ALT / AST / BUN / CRE / Ca / Cl / DBIL / GLC / IP / K / LDH / Na / PL / RALB / TBIL / TC / TG / TP / gamma-GTP: tissue Plasma
[1] = 30 mg/kg, 72 h, dose level Middle, time 3 day
[2] = 30 mg/kg, […], dose level Middle, time 7 day
[3] = 30 mg/kg, […], dose level Middle, time 14 day
[4] = 30 mg/kg, […], dose level Middle, time 28 day
[5] = 100 mg/kg, 72 h, dose level High, time 3 day
[6] = 100 mg/kg, […], dose level High, time 7 day
[7] = 100 mg/kg, […], dose level High, time 14 day
[8] = 100 mg/kg, […], dose level High, time 28 day

Cn1cc[nH]c1=S [METHIMAZOLE]
TERMINAL_BW [1]: 217 g
APTT [1]: 20.8 s
Bas [1]: 0%
Eos [1]: 1%
Fbg [1]: 340.6 mg/dL
Hb [1]: 14 g/dL
Ht [1]: 39.7%
Lym [1]: 84%
MCH [1]: 21.6 pg
MCHC [1]: 35.2%
MCV [1]: 61.2 fL
Mono [1]: 2%
Neu [1]: 12.8%
PT [1]: 16.5 s
Plat [1]: 131.6 x10_4/uL
RBC [1]: 648.8 x10_4/ul
Ret [1]: 5.4%
WBC [1]: 83.8 x10_2/uL
A/G [1]: 1.2
ALP [1]: 1643.6 IU/L
ALT [1]: 41.2 IU/L
AST [1]: 61 IU/L
BUN [1]: 14.6 mg/dL
CRE [1]: 0.1 mg/dL
Ca [1]: 11 mg/dL
Cl [1]: 107 meq/L
DBIL [1]: 0.002 mg/dL
GLC [1]: 178.4 mg/dL
IP [1]: 6.6 mg/dL
K [1]: 4.4 meq/L
LDH [1]: 260.2 IU/L
Na [1]: 142.4 meq/L
PL [1]: 173 mg/dL
RALB [1]: 3.3 g/dL
TBIL [1]: 0.012 mg/dL
TC [1]: 94 mg/dL
TG [1]: 132.8 mg/dL
TP [1]: 5.9 g/dL
gamma-GTP [1]: 1.2 IU/L
TERMINAL_BW [2]: 231.6 g
TERMINAL_BW [3]: 256 g
TERMINAL_BW [4]: 282.7 g
APTT [2]: 20.9 s
Bas [2]: 0%
Eos [2]: 1%
Fbg [2]: 335.6 mg/dL
Hb [2]: 15.1 g/dL
Ht [2]: 41.3%
Lym [2]: 83.6%
MCH [2]: 22.3 pg
MCHC [2]: 36.7%
MCV [2]: 60.7 fL
Mono [2]: 2%
Neu [2]: 12.8%
PT [2]: 16.9 s
Plat [2]: 122.3 x10_4/uL
RBC [2]: 680 x10_4/ul
Ret [2]: 3.7%
WBC [2]: 90.9 x10_2/uL
APTT [3]: 21.6 s
Bas [3]: 0%
Eos [3]: 0.2%
Fbg [3]: 295 mg/dL
Hb [3]: 14.6 g/dL
Ht [3]: 41.6%
Lym [3]: 89%
MCH [3]: 20.2 pg
MCHC [3]: 35%
MCV [3]: 57.6 fL
Mono [3]: 1%
Neu [3]: 8.4%
PT [3]: 17.5 s
Plat [3]: 109.2 x10_4/uL
RBC [3]: 721.2 x10_4/ul
Ret [3]: 1.6%
WBC [3]: 89.2 x10_2/uL
APTT [4]: 21.4 s
Bas [4]: 0%
Eos [4]: 0.8%
Fbg [4]: 290.6 mg/dL
Hb [4]: 15.4 g/dL
Ht [4]: 42.4%
Lym [4]: 84.4%
MCH [4]: 19.3 pg
MCHC [4]: 36.2%
MCV [4]: 53.3 fL
Mono [4]: 2%
Neu [4]: 12.2%
PT [4]: 17.4 s
Plat [4]: 90.1 x10_4/uL
RBC [4]: 796 x10_4/ul
Ret [4]: 1%
WBC [4]: 91.7 x10_2/uL
A/G [2]: 1.1
ALP [2]: 1563.2 IU/L
ALT [2]: 34.4 IU/L
AST [2]: 57 IU/L
BUN [2]: 17.2 mg/dL
CRE [2]: 0.2 mg/dL
Ca [2]: 10.7 mg/dL
Cl [2]: 108 meq/L
DBIL [2]: 0.002 mg/dL
GLC [2]: 166.8 mg/dL
IP [2]: 6.7 mg/dL
K [2]: 4.2 meq/L
LDH [2]: 248.8 IU/L
Na [2]: 141.8 meq/L
PL [2]: 169.4 mg/dL
RALB [2]: 3.2 g/dL
TBIL [2]: 0.002 mg/dL
TC [2]: 97 mg/dL
TG [2]: 105 mg/dL
TP [2]: 6.3 g/dL
gamma-GTP [2]: 1 IU/L
A/G [3]: 1.1
ALP [3]: 1519.4 IU/L
ALT [3]: 31.2 IU/L
AST [3]: 48 IU/L
BUN [3]: 22.2 mg/dL
CRE [3]: 0.2 mg/dL
Ca [3]: 10.8 mg/dL
Cl [3]: 106.4 meq/L
DBIL [3]: 0.002 mg/dL
GLC [3]: 175.6 mg/dL
IP [3]: 6.2 mg/dL
K [3]: 3.8 meq/L
LDH [3]: 190.4 IU/L
Na [3]: 142.6 meq/L
PL [3]: 169 mg/dL
RALB [3]: 3.4 g/dL
TBIL [3]: 0.018 mg/dL
TC [3]: 105 mg/dL
TG [3]: 79.6 mg/dL
TP [3]: 6.7 g/dL
gamma-GTP [3]: 1 IU/L
A/G [4]: 1
ALP [4]: 839.6 IU/L
ALT [4]: 34 IU/L
AST [4]: 44 IU/L
BUN [4]: 21.2 mg/dL
CRE [4]: 0.3 mg/dL
Ca [4]: 10.4 mg/dL
Cl [4]: 106.2 meq/L
DBIL [4]: 0.006 mg/dL
GLC [4]: 169.8 mg/dL
IP [4]: 5.3 mg/dL
K [4]: 3.9 meq/L
LDH [4]: 154.8 IU/L
Na [4]: 142.2 meq/L
PL [4]: 159.6 mg/dL
RALB [4]: 3.5 g/dL
TBIL [4]: 0.014 mg/dL
TC [4]: 103.2 mg/dL
TG [4]: 53.8 mg/dL
TP [4]: 6.9 g/dL
gamma-GTP [4]: 2 IU/L
TERMINAL_BW [5]: 196.1 g
APTT [5]: 20.2 s
Bas [5]: 0%
Eos [5]: 1%
Fbg [5]: 316.5 mg/dL
Hb [5]: 14.8 g/dL
Ht [5]: 41.3%
Lym [5]: 81.4%
MCH [5]: 21.8 pg
MCHC [5]: 35.9%
MCV [5]: 60.6 fL
Mono [5]: 2.2%
Neu [5]: 14.6%
PT [5]: 15.9 s
Plat [5]: 118.8 x10_4/uL
RBC [5]: 682.8 x10_4/ul
Ret [5]: 3.7%
WBC [5]: 59.4 x10_2/uL
A/G [5]: 1.2
ALP [5]: 1390.6 IU/L
ALT [5]: 34.8 IU/L
AST [5]: 42.2 IU/L
BUN [5]: 16.6 mg/dL
CRE [5]: 0.1 mg/dL
Ca [5]: 10.8 mg/dL
Cl [5]: 108.2 meq/L
DBIL [5]: 0.004 mg/dL
GLC [5]: 162 mg/dL
IP [5]: 7.1 mg/dL
K [5]: 3.9 meq/L
LDH [5]: 258.6 IU/L
Na [5]: 141.8 meq/L
PL [5]: 180.8 mg/dL
RALB [5]: 3.2 g/dL
TBIL [5]: 0.028 mg/dL
TC [5]: 103 mg/dL
TG [5]: 62.2 mg/dL
TP [5]: 5.9 g/dL
gamma-GTP [5]: 1 IU/L
TERMINAL_BW [6]: 231.6 g
TERMINAL_BW [7]: 234.9 g
TERMINAL_BW [8]: 244.7 g
APTT [6]: 20.6 s
Bas [6]: 0%
Eos [6]: 1%
Fbg [6]: 347.6 mg/dL
Hb [6]: 14.7 g/dL
Ht [6]: 40.3%
Lym [6]: 86.8%
MCH [6]: 21.7 pg
MCHC [6]: 36.4%
MCV [6]: 59.6 fL
Mono [6]: 2.2%
Neu [6]: 8.4%
PT [6]: 17.9 s
Plat [6]: 132.4 x10_4/uL
RBC [6]: 677 x10_4/ul
Ret [6]: 2.3%
WBC [6]: 73.6 x10_2/uL
APTT [7]: 20.8 s
Bas [7]: 0%
Eos [7]: 0.4%
Fbg [7]: 430.8 mg/dL
Hb [7]: 14.5 g/dL
Ht [7]: 40.9%
Lym [7]: 80.4%
MCH [7]: 20.4 pg
MCHC [7]: 35.4%
MCV [7]: 57.7 fL
Mono [7]: 2.6%
Neu [7]: 15%
PT [7]: 18.1 s
Plat [7]: 100.4 x10_4/uL
RBC [7]: 708.8 x10_4/ul
Ret [7]: 1.4%
WBC [7]: 65 x10_2/uL
APTT [8]: 19.9 s
Bas [8]: 0%
Eos [8]: 0.2%
Fbg [8]: 298.4 mg/dL
Hb [8]: 14.9 g/dL
Ht [8]: 40.7%
Lym [8]: 87.4%
MCH [8]: 19.6 pg
MCHC [8]: 36.7%
MCV [8]: 53.4 fL
Mono [8]: 1.8%
Neu [8]: 9.4%
PT [8]: 18.1 s
Plat [8]: 77.6 x10_4/uL
RBC [8]: 761.4 x10_4/ul
Ret [8]: 0.7%
WBC [8]: 79.7 x10_2/uL
A/G [6]: 1.1
ALP [6]: 1556.6 IU/L
ALT [6]: 30.2 IU/L
AST [6]: 32.4 IU/L
BUN [6]: 18 mg/dL
CRE [6]: 0.2 mg/dL
Ca [6]: 11.1 mg/dL
Cl [6]: 107.2 meq/L
DBIL [6]: 0.004 mg/dL
GLC [6]: 161.4 mg/dL
IP [6]: 7 mg/dL
K [6]: 4.1 meq/L
LDH [6]: 221.8 IU/L
Na [6]: 141.4 meq/L
PL [6]: 203.2 mg/dL
RALB [6]: 3.5 g/dL
TBIL [6]: 0.01 mg/dL
TC [6]: 120 mg/dL
TG [6]: 89.4 mg/dL
TP [6]: 6.7 g/dL
gamma-GTP [6]: 1.8 IU/L
A/G [7]: 1
ALP [7]: 984.4 IU/L
ALT [7]: 30.8 IU/L
AST [7]: 26.6 IU/L
BUN [7]: 21.6 mg/dL
CRE [7]: 0.3 mg/dL
Ca [7]: 11.1 mg/dL
Cl [7]: 106.4 meq/L
DBIL [7]: 0.006 mg/dL
GLC [7]: 164.8 mg/dL
IP [7]: 6.3 mg/dL
K [7]: 4 meq/L
LDH [7]: 182.6 IU/L
Na [7]: 142.6 meq/L
PL [7]: 201.4 mg/dL
RALB [7]: 3.6 g/dL
TBIL [7]: 0.034 mg/dL
TC [7]: 140.2 mg/dL
TG [7]: 44.4 mg/dL
TP [7]: 7.2 g/dL
gamma-GTP [7]: 2 IU/L
A/G [8]: 1.1
ALP [8]: 910 IU/L
ALT [8]: 33.4 IU/L
AST [8]: 25.8 IU/L
BUN [8]: 24.8 mg/dL
CRE [8]: 0.3 mg/dL
Ca [8]: 10.8 mg/dL
Cl [8]: 105.6 meq/L
DBIL [8]: 0.028 mg/dL
GLC [8]: 166.6 mg/dL
IP [8]: 5.6 mg/dL
K [8]: 3.5 meq/L
LDH [8]: 151.2 IU/L
Na [8]: 143.8 meq/L
PL [8]: 167.6 mg/dL
RALB [8]: 3.7 g/dL
TBIL [8]: 0.048 mg/dL
TC [8]: 110 mg/dL
TG [8]: 42 mg/dL
TP [8]: 7.2 g/dL
gamma-GTP [8]: 2.6 IU/L

Reference: ChEMBL document CHEMBL3885861, “Open TG-GATES”
